Experimental data published in patent US7528132B2, “Kinase inhibitors” (Schering Corporation, priority 2005, dated 2009).
Where two headings read alike, the source gives them in different places.

Biological target: T1, Akt1 (Homo sapiens, UniProt P31749)
T1 construct: made in house; host or cells: Sf9 insect cells (baculovirus, pBlueBacHis2B)
Test: Akt1 kinase assay (33P phosphorylation of biotinylated peptide, Flash plates)
Format: biochemical
Conditions: for inhibition at 1.1 µg/mL: assayed at a concentration of 1.1 mcg/mL
From the text: The assay described below measures the phosphorylation of a biotinylated peptide by active recombinant Akt1 and other kinase isoforms. The biotinylated peptide contains a consensus sequence derived from Akt substrate Gsk3 (Glycogen synthase kinase 3). The ^33P-labeled peptide substrate was captured by streptavidin-coated Flash plates.
Active recombinant Akt1 was expressed in Sf9 insect cells and purified as described by Kumar et al., Biochim. Biophys. Acta. Jun. 15, 2001, 1526(3), 257-268. Biotinylated peptide of the sequence Bio-ahx-RPRAASF was purchased from Syn Pep (Dublin, Calif., USA).
Cloning and Expression of Human Akt1 Sf9 Cells
Human Akt1 cDNA was amplified from a marathon-ready human lung cDNA library (Clonetech) using nested oligo primers as described below. The first round of amplification was carried out using the following primers; Akt1F1 ([…]) and Akt1R1 (TCCATC […]) and for the second round amplification, the primers of the following sequence were used; Akt1F2 (GGATCCTCGG […]) and AKT1R2 (GGTACCATCGTC […]). The PCR product was subcloned into pCRScript plasmid as a BamHI/KpnI fragment and the sequence of the cDNA was confirmed by DNA sequencing. This plasmid was used as a template for reamplification of Akt1 using appropriate primers for subcloning into pBlueBaHis2B into BamH1/EcoRI sites to generate an in frame fusion to (His)6 tag and an anti-Xpress antibody epitope tag at the N-terminus. This construct was sequenced to verify the junction sequences and used for generating a recombinant baculovirus. Growth of the recombinant virus, amplification and determination of viral titer were carried out according to the instructions from the manufacturer (InVitrogen, CA).
Purification of Akt1 from Sf9 Cells
Viral stocks were used to infect large scale Sf9 cells at a multiplicity of infection (MOI) of 2.5. Cells were maintained at 27° C. for 60 h and okadaic acid was added to the cultures to a concentration of 50 nM. Cells were harvested 4 h hours later by centrifugation at 1200 rpm for 30 min followed by freezing at −80° C. until further use. All purification steps were carried out at 4° C. Whole cell pellets were suspended in buffer A (20 mM sodium phosphate buffer pH 7.8, 500 mM NaCl, 1 mM sodium vanadate, 5 mM sodium fluoride, 40 mM β-glycerophosphate, 10 mM imidazole and protease inhibitor cocktail) and lysed using a microfluidizer. The cell extract was centrifuged at 16,000×g for 10 min to remove the debris and directly loaded onto Ni-NTA Superflow resin using a FPLC pump operated at 1 ml/min. The column was washed once with buffer A, once with wash buffer B (20 mM sodium phosphate pH 6.0, 1 mM sodium vanadate, 5 mM sodium fluoride and protease cocktail) and once with wash buffer B containing 0.05% Tween-20 followed by washing with buffer A until OD260 returned to basal level. Proteins were eluted with buffer A containing 200 mM imidazole. Fractions were analyzed by electrophoresis on 10% denaturing polyacrylamide gels and fractions containing 85% pure protein band at 60 KDa were pooled and dialyzed against buffer C (20 mM Tris-HCl pH 7.5, 0.5 mM EDTA,-2 mM DTT, 145 mM NaCl, 0.1 mM sodium vanadate, 5 mM sodium fluoride, 10 mM, β-glycerophosphate and 20% glycerol). Purified protein was stored as aliquots at −80° C. Protein concentrations were determined using BCA protein assay reagent A (Catalog #23228). To examine the identity of the proteins, 2 μg of purified protein was electrophoresed on SDS-polyacrylamide gels and stained with coomassie blue dye or transferred to nitrocellulose membrane and probed with anti-Akt and anti-phospho-specific Akt antibodies using enhanced chemiluminescence (ECL) reagent according to the protocol described by the manufacturer (Amersham).
The kinase assay was performed in 96 well plates at room temperature. Assay solutions and plates were preincubated at room temperature for 5 min. […]

[1] = read-out: IC50 rating (AKT1 inhibition)
[2] = read-out: IC50 (AKT1 inhibition)

T1 sequence (P31749 whole entry): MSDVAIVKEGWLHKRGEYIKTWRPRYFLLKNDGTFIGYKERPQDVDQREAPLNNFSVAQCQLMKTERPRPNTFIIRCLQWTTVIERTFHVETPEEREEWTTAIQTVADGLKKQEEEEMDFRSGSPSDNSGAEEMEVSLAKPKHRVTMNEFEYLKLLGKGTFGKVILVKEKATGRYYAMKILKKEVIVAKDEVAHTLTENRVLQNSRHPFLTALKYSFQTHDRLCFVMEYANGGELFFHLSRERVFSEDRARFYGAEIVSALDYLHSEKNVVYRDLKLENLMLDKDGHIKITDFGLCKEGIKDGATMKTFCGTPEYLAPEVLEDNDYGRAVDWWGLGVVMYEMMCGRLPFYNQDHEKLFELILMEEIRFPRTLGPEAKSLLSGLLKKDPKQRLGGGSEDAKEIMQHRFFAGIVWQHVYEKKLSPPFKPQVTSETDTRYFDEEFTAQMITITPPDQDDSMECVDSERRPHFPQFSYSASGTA

Compound | IC50 [1] [µM] | inhibition at 1.1 µg/mL [%] | IC50 [2] [µM]
Cc1n[nH]c2ccc(-c3nnc(N)c(N4CCNCC4)n3)cc12 [Compound 1, 6-amino-3-(3-methylindazol-5-yl)-5-(piperazin-1-yl)-[1,2,4]triazine] | 0.1 to 1 |  | 
Cc1n[nH]c2ccc(-c3nnc(N)c(O)n3)cc12 [Compound 2] | > 1 |  | 
Cc1n[nH]c2ccc(-c3nnc(NCc4ccccc4)c(N4CCNCC4)n3)cc12 [Compound 3, 6-benzylamino-3-(3-methylindazol-5-yl)-5-(piperazin-1-yl)-[1,2,4]triazine] | < 0.1 | > 90 | 
Cc1n[nH]c2ccc(-c3nnc(N(Cc4ccccc4)Cc4ccccc4)c(N4CCNCC4)n3)cc12 [Compound 4, 6-dibenzylamino-3-(3-methylindazol-5-yl)-5-(piperazin-1-yl)-[1,2,4]triazine] | > 1 |  | 
Cc1n[nH]c2ccc(-c3nnc(N)c(N4CCN[C@@H](Cc5ccccc5)C4)n3)cc12 [Compound 5, 6-amino-5-[(S)-3-benzylpiperazin-1-yl]-3-(3-methylindazol-5-yl)-[1,2,4]triazine] | < 0.1 | > 90 | 
Cc1n[nH]c2ccc(-c3nnc(N)c(N4CCN[C@H](c5ccccc5)C4)n3)cc12 [Compound 6, 6-amino-3-(3-methylindazol-5-yl)-5-[(R)-3-phenylpiperazin-1-yl]-[1,2,4]triazine] | 0.1 to 1 |  | 
Cc1n[nH]c2ccc(-c3nnc(N)c(N4CCN[C@@H](C(C)C)C4)n3)cc12 [Compound 7, 6-amino-5-[(S)-3-isopropylpiperazin-1-yl]-3-(3-methylindazol-5-yl)-[1,2,4]triazine] | < 0.1 | > 90 | 
Cc1n[nH]c2ccc(-c3nnc(N)c(N4CCN[C@@H](CC(C)C)C4)n3)cc12 [Compound 8, 6-amino-5-[(S)-3-isobutylpiperazin-1-yl]-3-(3-methylindazol-5-yl)-[1,2,4]triazine] | < 0.1 | > 90 | 
Cc1n[nH]c2ccc(-c3nnc(N)c(N4CCN[C@H](C)C4)n3)cc12 [Compound 9, 6-amino-3-(3-methylindazol-5-yl)-5-[(R)-3-methylpiperazin-1-yl]-[1,2,4]triazine] | > 1 |  | 
Cc1n[nH]c2ccc(-c3nnc(N)c(N4CCCNCC4)n3)cc12 [Compound 10, 6-amino-5-([1,4]diazepan-1-yl)-3-(3-methylindazol-5-yl)-[1,2,4]triazine] | 0.1 to 1 | > 90 | 
Cc1n[nH]c2ccc(-c3nnc(N)c(N4CC5CC4CN5)n3)cc12 (stereo not shown) [Compound 11, 6-amino-5-(2,5-diazabicyclo[2.2.1]hept-2-yl)-3-(3-methylindazol-5-yl)-[1,2,4]triazine] | > 1 |  | 
Cc1n[nH]c2ccc(-c3nncc(N4CCN[C@@H](Cc5ccccc5)C4)n3)cc12 [Compound 12, 3-(3-methylindazol-5-yl)-5-[(S)-3-benzylpiperazin-1-yl]-[1,2,4]triazine] | < 0.1 | > 90 | 0.0026
Cc1n[nH]c2ccc(-c3nnc(Cl)c(N4CCN[C@@H](Cc5ccccc5)C4)n3)cc12 [Compound 13, 5-[(S)-3-benzylpiperazin-1-yl]-6-chloro-3-(3-methylindazol-5-yl)-[1,2,4]triazine] | < 0.1 | > 90 | 
Cc1n[nH]c2ccc(-c3nnc(N)c(N4CCN[C@@H](C)C4)n3)cc12 [Compound 14, 6-amino-3-(3-methylindazol-5-yl)-5-[(S)-3-methylpiperazin-1-yl]-[1,2,4]triazine] | 0.1 to 1 |  | 
Cc1n[nH]c2ccc(-c3nnc(NCc4ccccc4)c(N4CCN[C@@H](C)C4)n3)cc12 [Compound 15, 6-benzylamino-3-(3-methylindazol-5-yl)-5-[(S)-3-methylpiperazin-1-yl]-[1,2,4]triazine] | 0.1 to 1 |  | 
Cc1n[nH]c2ccc(-c3nnc(NCc4ccccc4)c(N4CCN[C@@H](C(C)C)C4)n3)cc12 [Compound 16, 6-benzylamino-5-[(S)-3-isopropylpiperazin-1-yl]-3-(3-methylindazol-5-yl)-[1,2,4]triazine] | < 0.1 | > 90 | 
Cc1n[nH]c2ccc(-c3nnc(NCc4ccccc4)c(N4CCN[C@@H](CC(C)C)C4)n3)cc12 [Compound 17, 6-benzylamino-5-[(S)-3-isobutylpiperazin-1-yl]-3-(3-methylindazol-5-yl)-[1,2,4]triazine] | > 1 |  | 
Cc1n[nH]c2ccc(-c3nnc(NCc4ccccc4)c(N4CCN[C@@H](Cc5ccccc5)C4)n3)cc12 [Compound 18, 6-Benzylamino-5-[(S)-3-benzylpiperazin-1-yl]-3-(3-methylindazol-5-yl)-[1,2,4]triazine] | > 1 |  | 
Cc1n[nH]c2ccc(-c3nncc(N4CCN[C@@H](C(C)C)C4)n3)cc12 [Compound 19, 5-[(S)-3-isopropylpiperazin-1-yl]-3-(3-methylindazol-5-yl)-[1,2,4]triazine] | < 0.1 |  | 
Cc1n[nH]c2ccc(-c3nnc(Cl)c(N4CCN[C@@H](C(C)C)C4)n3)cc12 [Compound 20, 6-chloro-5-[(S)-3-isopropylpiperazin-1-yl]-3-(3-methylindazol-5-yl)-[1,2,4]triazine] | < 0.1 | > 90 | 
Cc1n[nH]c2ccc(-c3nncc(N4CCN[C@@H](Cc5c[nH]c6ccccc56)C4)n3)cc12 [Compound 21, 5-[(S)-3-(3-indolylmethyl)piperazin-1-yl]-3-(3-methylindazol-5-yl)-[1,2,4]triazine] | 0.1 to 1 |  | 
Cc1n[nH]c2ccc(-c3nnc(Cl)c(N4CCN[C@@H](Cc5c[nH]c6ccccc56)C4)n3)cc12 [Compound 22, 6-chloro-5-[(S)-3-(3-indolylmethyl)piperazin-1-yl]-3-(3-methylindazol-5-yl)-[1,2,4]triazine] | > 1 |  | 
Cc1n[nH]c2ccc(-c3nncc(N4CCN[C@@H](CC(C)C)C4)n3)cc12 [Compound 23, 5-[(S)-3-isobutylpiperazin-1-yl]-3-(3-methylindazol-5-yl)-[1,2,4]triazine] | < 0.1 | > 90 | 0.0054
Cc1n[nH]c2ccc(-c3nnc(Cl)c(N4CCN[C@@H](CC(C)C)C4)n3)cc12 [Compound 24, 6-chloro-5-[(S)-3-isobutylpiperazin-1-yl]-3-(3-methylindazol-5-yl)-[1,2,4]triazine] | < 0.1 | > 90 | 
Cc1n[nH]c2ccc(-c3nnc(Cl)c(N4CCN[C@@H](COCc5ccccc5)C4)n3)cc12 [Compound 25, 5-[(R)-3-(benzyloxymethyl)piperazin-1-yl]-6-chloro-3-(3-methylindazol-5-yl)-[1,2,4]triazine] | > 1 |  | 
Cc1n[nH]c2ccc(-c3nncc(N4CCN[C@@H](COCc5ccccc5)C4)n3)cc12 [Compound 26, 5-[(R)-3-(benzyloxymethyl)piperazin-1-yl]-3-(3-methylindazol-5-yl)-[1,2,4]triazine] | > 1 |  | 
Cc1n[nH]c2ccc(-c3nncc(N4CCN[C@@H](CO)C4)n3)cc12 [Compound 27] | > 1 |  | 
Cc1n[nH]c2ccc(-c3nncc(N4CCN(C)[C@@H](Cc5ccccc5)C4)n3)cc12 [Compound 28, 5-[(S)-3-benzyl-4-methyl-piperazin-1-yl]-3-(3-methylindazol-5-yl)-[1,2,4]triazine] | < 0.1 |  | 
Cc1n[nH]c2ccc(-c3nncc(N4CCN5CCCC5C4)n3)cc12 (stereo not shown) [Compound 29, 5-(1,4-diazabicyclo[4.3.0]non-1-yl)-3-(3-methylindazol-5-yl)-[1,2,4]triazine] | > 1 |  | 
Cc1n[nH]c2ccc(-c3nncc(N4CCN5CCCCC5C4)n3)cc12 (stereo not shown) [Compound 30, 5-(1,4-diazabicyclo[4.4.0]dec-1-yl)-3-(3-methylindazol-5-yl)-[1,2,4]triazine] | > 1 |  | 
